# According to US20260207569A1, “LPA1 ANTAGONISTS FOR TREATING INTERSTITIAL LUNG DISEASE” (Bristol-Myers Squibb Company, priority 2022, published 2026):
# Key:
# participants with PPF = test: Phase 2 PPF cohort efficacy: rate of FVC decline (% predicted) / FVC to Week 26; assay type: in vivo, human; details: for Mean observed change from baseline in ppFVC and FVC vs placebo: to week 26
# Procedure: (§1) A total of 123 participants with PPF were randomized. Participants (age ≥21 years) were randomized (1:1:1) to receive 30 mg or 60 mg Compound A or PBO twice daily for 26 weeks. […] Immunosuppressive medications (mycophenolate mofetil, mycophenolic acid, azathioprine and/or tacrolimus) were permitted only if dosing is stable for ≥6 months prior to screening. If receiving antifibrotic agents pirfenidone or nintedanib, patients had to receive a stable dosage for ≥3 months prior to screening and during the screening period; if not receiving pirfenidone or nintedanib, patients had to be naive to both drugs or not have received either 4 weeks prior to Day 1. A total of 47 (38.2%) subjects were receiving antifibrotic treatment (with or without immunosuppression therapy). Of those subjects, 34 were being treated with nintedanib and 13 with pirfenidone. Participants were stratified by usual interstitial pneumonia (UIP) pattern (presence versus absence) and background therapy (antifibrotics +/−ILD-targeted immunosuppression versus ILD-targeted immunosuppression alone versus none). UIP pattern was present in 52% of subjects and unclassifiable ILD was he most common disease categorization.
# The study was not powered to detect statistical significance (no formal testing). No target effect size was defined in the study design. There were two estimand approaches for analysis: • Treatment Policy: Effect of treatment with dose reduction as part of treatment regimen. • While-On Treatment: Effect of treatment without dose reduction.
# The main efficacy endpoint, rate of FVC decline (in % of predicted) from baseline to wk-26 in the PPF cohort, was estimated using a linear mixed-effects model utilizing all FVC timepoints. It was analyzed under a primary estimand (utilizing all data, treatment policy strategy), and under supplementary estimand (utilizing all data up to the point of dose reduction, while-on-treatment strategy). Analysis was performed in the overall population as well as in sub-groups by 1) background anti-fibrotic treatment or not 2) UIP radiographic pattern (presence or not). The mean baseline ppFVC was 66.7% for the PPF cohort.
# [1] = Phase 2 PPF cohort safety: adverse events, prespecified asymptomatic or symptomatic blood pressure reduction criteria, dose reductions; assay type: in vivo, human; details: for Patients with asymptomatic blood pressure reduction, (%) / Patients with asymptomatic blood pressure reduction, no. / Patients with symptomatic blood pressure reduction, (%) / Patients with symptomatic blood pressure reduction, no.: prespecified criteria
# Procedure: as §1
# Patient is experiencing any of the following, confirmed by retest within 15 minutes: • Seated systolic blood pressure <85 mmHg • Seated diastolic blood pressure <55 mmHg • Orthostatic hypotension
# Patient is experiencing symptoms that, in the investigator's opinion, could be associated with a reduction in blood pressure and is also experiencing at least one of the following, confirmed by retest within 15 minutes: • Seated systolic blood pressure <100 mmHg or seated diastolic blood pressure <60 mmHg • Decrease of seated systolic blood pressure of ≥20 mmHg from the previous visit or decrease of seated diastolic blood pressure of ≥10 mmHg from the previous visit • Orthostatic hypotension • Orthostatic tachycardia
# [2] = PPF cohort, 30-mg Compound A (n = 40)
# [3] = PPF cohort, 60-mg Compound A (n = 42)
compound,measurement,setting,value
"CCCN(C)C(=O)OCc1c(-c2ccc(O[C@H]3CCC[C@H](C(=O)O)C3)c(C)n2)nnn1C [Compound A, (1S,3S)-3-((2-methyl-6-(1-methyl-5-(((methyl(propyl)carbamoyl)-oxy)methyl)-1H-1,2,3-triazol-4-yl)pyridin-3-yl)oxy)cyclohexane-1-carboxylic acid]",Treatment differences by UIP pattern,participants with PPF; PPF cohort,treatment differences were seen in the PPF cohort independent of UIP pattern presence or absence
same,Treatment differences in rates of change in ppFVC by background antifibrotic use,participants with PPF; PPF cohort,consistent with or without background antifibrotic use
same,Dose response of efficacy,"participants with PPF; PPF cohort, 30 mg and 60 mg BID",Clear dose response
same,Consistency of efficacy across sub-groups,"participants with PPF; PPF cohort, background antifibrotics, UIP pattern",Efficacy consistent in all sub-groups
same,"Rate of decline in FVC (% Predicted), slope","participants with PPF; PPF, 30 mg BID, UIP absent, supplementary estimand",−2.24 % Predicted
same,"Rate of decline in FVC (% Predicted), slope","participants with PPF; PPF, 30 mg BID, UIP present, primary estimand",−3.07 % Predicted
same,"Rate of decline in FVC (% Predicted), slope","participants with PPF; PPF, 30 mg BID, not receiving antifibrotic treatment, supplementary estimand",−2.83 % Predicted
same,"Rate of decline in FVC (% Predicted), slope","participants with PPF; PPF, 30 mg BID, overall population, primary estimand (treatment policy), 26 weeks",−2.7 % Predicted
same,"Rate of decline in FVC (% Predicted), slope","participants with PPF; PPF, 30 mg BID, receiving antifibrotic treatment, supplementary estimand",−1.8 % Predicted
same,Mean observed change from baseline in ppFVC and FVC vs placebo,"participants with PPF; PPF, 30 mg BID",shows more significant improvement after week 20
same,"Rate of decline in FVC (% Predicted), slope","participants with PPF; PPF, 60 mg BID, UIP absent, supplementary estimand",−0.7 % Predicted
same,"Rate of decline in FVC (% Predicted), slope","participants with PPF; PPF, 60 mg BID, UIP present, primary estimand",−1.46 % Predicted
same,"Rate of decline in FVC (% Predicted), slope","participants with PPF; PPF, 60 mg BID, not receiving antifibrotic treatment, supplementary estimand",−1.56 % Predicted
same,"Rate of decline in FVC (% Predicted), slope","participants with PPF; PPF, 60 mg BID, overall population, supplementary estimand (while on treatment), 26 weeks",−1.3 % Predicted
same,"Rate of decline in FVC (% Predicted), slope","participants with PPF; PPF, 60 mg BID, receiving antifibrotic treatment, supplementary estimand",−1.1 % Predicted
same,Mean observed change from baseline in ppFVC and FVC vs placebo,"participants with PPF; PPF, 60 mg BID",maintains the improvement over placebo through the end of week 26
same,"Slope difference, 60 mg − placebo","participants with PPF; PPF, UIP absent, supplementary estimand",3.8 % Predicted
same,"Slope difference, 30 mg − placebo","participants with PPF; PPF, UIP present, primary estimand",0.88 % Predicted
same,"Slope difference (S.E.), 60 mg − placebo","participants with PPF; PPF, overall population, primary estimand (treatment policy)",3.2 % Predicted
same,"Slope difference (S.E.), 60 mg − placebo","participants with PPF; PPF, overall population, supplementary estimand (while on treatment)",2.9 % Predicted
same,Day-1 blood pressure reduction,[1]; PPF cohort,dose dependent day-1 blood pressure reduction
same,Marked laboratory abnormalities,[1]; PPF cohort,No notable imbalances in marked laboratory abnormalities among treatment groups
same,Prespecified blood pressure reduction criteria across arms,[1]; PPF cohort,increased in a dose-dependent manner
same,"Patients with dose reductions, (%)",[1]; [2],(15.0) %
same,"Patients with dose reductions, no.",[1]; [2],6 no.
same,"Patients with orthostatic hypotension (within asymptomatic blood pressure reduction), (%)",[1]; [2],(15.0) %
same,"Patients with orthostatic hypotension (within asymptomatic blood pressure reduction), no.",[1]; [2],6 no.
same,"Patients with orthostatic hypotension (within symptomatic blood pressure reduction), (%)",[1]; [2],(2.5) %
same,"Patients with orthostatic hypotension (within symptomatic blood pressure reduction), no.",[1]; [2],1 no.
same,"Patients with asymptomatic blood pressure reduction, (%)",[1]; [2],(22.5) %
same,"Patients with asymptomatic blood pressure reduction, no.",[1]; [2],9 no.
same,"Patients with symptomatic blood pressure reduction, (%)",[1]; [2],(5.0) %
same,"Patients with symptomatic blood pressure reduction, no.",[1]; [2],2 no.
same,"Patients with dose reductions, (%)",[1]; [3],(11.9) %
same,"Patients with dose reductions, no.",[1]; [3],5 no.
same,"Patients with orthostatic hypotension (within asymptomatic blood pressure reduction), (%)",[1]; [3],(26.2) %
same,"Patients with orthostatic hypotension (within asymptomatic blood pressure reduction), no.",[1]; [3],11 no.
same,"Patients with orthostatic hypotension (within symptomatic blood pressure reduction), (%)",[1]; [3],(9.5) %
same,"Patients with orthostatic hypotension (within symptomatic blood pressure reduction), no.",[1]; [3],4 no.
same,"Patients with asymptomatic blood pressure reduction, (%)",[1]; [3],(31.0) %
same,"Patients with asymptomatic blood pressure reduction, no.",[1]; [3],13 no.
same,"Patients with symptomatic blood pressure reduction, (%)",[1]; [3],(14.3) %
same,"Patients with symptomatic blood pressure reduction, no.",[1]; [3],6 no.
same,Low BP thresholds (“events”),"[1]; PPF, 30 mg BID",30%
same,"COVID-19, %","[1]; PPF, 30 mg BID (n = 40)",(15.0) %
same,"COVID-19, no.","[1]; PPF, 30 mg BID (n = 40)",6
same,"Cough, %","[1]; PPF, 30 mg BID (n = 40)",(7.5) %
same,"Cough, no.","[1]; PPF, 30 mg BID (n = 40)",3
same,"Deaths due to TEAEs, no.","[1]; PPF, 30 mg BID (n = 40)",0
same,"Diarrhea, %","[1]; PPF, 30 mg BID (n = 40)",(15.0) %
same,"Diarrhea, no.","[1]; PPF, 30 mg BID (n = 40)",6
same,"Discontinuations due to TEAEs, %","[1]; PPF, 30 mg BID (n = 40)",(2.5) %
same,"Discontinuations due to TEAEs, no.","[1]; PPF, 30 mg BID (n = 40)",1
same,"Dizziness, no.","[1]; PPF, 30 mg BID (n = 40)",0
same,"Dyspnea, %","[1]; PPF, 30 mg BID (n = 40)",(5.0) %
same,"Dyspnea, no.","[1]; PPF, 30 mg BID (n = 40)",2
same,"Hypertension, no.","[1]; PPF, 30 mg BID (n = 40)",0
same,"Hypotension, %","[1]; PPF, 30 mg BID (n = 40)",(10.0) %
same,"Hypotension, no.","[1]; PPF, 30 mg BID (n = 40)",4
same,"Nausea, %","[1]; PPF, 30 mg BID (n = 40)",(10.0) %
same,"Nausea, no.","[1]; PPF, 30 mg BID (n = 40)",4
same,"Orthostatic hypotension, %","[1]; PPF, 30 mg BID (n = 40)",(5.0) %
same,"Orthostatic hypotension, no.","[1]; PPF, 30 mg BID (n = 40)",2
same,"Patients with ≥1 TEAE related to study drug, no.","[1]; PPF, 30 mg BID (n = 40)",7
same,"Patients with ≥1 TEAE, no.","[1]; PPF, 30 mg BID (n = 40)",33
same,"Patients with ≥1 TESAE, no.","[1]; PPF, 30 mg BID (n = 40)",4
same,"Rash, %","[1]; PPF, 30 mg BID (n = 40)",(7.5) %
same,"Rash, no.","[1]; PPF, 30 mg BID (n = 40)",3
same,"Vomiting, %","[1]; PPF, 30 mg BID (n = 40)",(7.5) %
same,"Vomiting, no.","[1]; PPF, 30 mg BID (n = 40)",3
same,Orthostatic hypotension (asymptomatic and symptomatic) vs other groups,"[1]; PPF, 60 mg BID",higher in the 60 mg group than for other groups
same,"COVID-19, %","[1]; PPF, 60 mg BID (n = 42)",(14.3) %
same,"COVID-19, no.","[1]; PPF, 60 mg BID (n = 42)",6
same,"Cough, %","[1]; PPF, 60 mg BID (n = 42)",(11.9) %
same,"Cough, no.","[1]; PPF, 60 mg BID (n = 42)",5
same,"Deaths due to TEAEs, no.","[1]; PPF, 60 mg BID (n = 42)",0
same,"Diarrhea, %","[1]; PPF, 60 mg BID (n = 42)",(7.1) %
same,"Diarrhea, no.","[1]; PPF, 60 mg BID (n = 42)",3
same,"Discontinuations due to TEAEs, no.","[1]; PPF, 60 mg BID (n = 42)",0
same,"Dizziness, %","[1]; PPF, 60 mg BID (n = 42)",(9.5) %
same,"Dizziness, no.","[1]; PPF, 60 mg BID (n = 42)",4
same,"Dyspnea, no.","[1]; PPF, 60 mg BID (n = 42)",0
same,"Hypertension, %","[1]; PPF, 60 mg BID (n = 42)",(2.4) %
same,"Hypertension, no.","[1]; PPF, 60 mg BID (n = 42)",1
same,"Hypotension, %","[1]; PPF, 60 mg BID (n = 42)",(7.1) %
same,"Hypotension, no.","[1]; PPF, 60 mg BID (n = 42)",3
same,"Nausea, %","[1]; PPF, 60 mg BID (n = 42)",(2.4) %
same,"Nausea, no.","[1]; PPF, 60 mg BID (n = 42)",1
same,"Orthostatic hypotension, %","[1]; PPF, 60 mg BID (n = 42)",(9.5) %
same,"Orthostatic hypotension, no.","[1]; PPF, 60 mg BID (n = 42)",4
same,"Patients with ≥1 TEAE related to study drug, no.","[1]; PPF, 60 mg BID (n = 42)",11
same,"Patients with ≥1 TEAE, no.","[1]; PPF, 60 mg BID (n = 42)",28
same,"Patients with ≥1 TESAE, no.","[1]; PPF, 60 mg BID (n = 42)",5
same,"Rash, no.","[1]; PPF, 60 mg BID (n = 42)",0
same,"Vomiting, no.","[1]; PPF, 60 mg BID (n = 42)",0
same,Adverse event profile other than low blood pressure,"[1]; PPF, 60 mg BID versus placebo",generally in favor of the 60 mg group versus placebo
